Data on 8 molecules can be found in patent US5091381A, “2H-1,3,4-benzotriazepin-2-ones” (Biomeasure, Inc., priority 1991, dated 1992).

The target of one test is T1, peripheral BZD receptor (Rattus norvegicus, UniProt P16257).
T1 construct: Crude membranes were prepared by homogenization of a rat forebrain sample; from tissue; host or cells: rat forebrain crude membranes
As to the kind of experiment: Receptor binding assay, peripheral BZD ([3H]RO5-4864 displacement, rat forebrain membranes). The note with it: read-out: BENZODIAZEPINE RECEPTOR BINDING, PERIPHERAL BZD. How it is done:
(§1) Crude membranes were prepared by homogenization of a rat forebrain sample in 20 ml of ice-cold 50 mM phosphate buffer (81 mM Na^+, 9 mMK^+) buffer with a Brinkman Polytron (setting 6, 15 sec). Buffer was added to obtain a final volume of 40 ml, and the homogenate was centrifuged in a Sorval SS-34 rotor at 39,000 g for 10 min at 0°-4° C. The resulting supernatant was decanted and discarded. The pellet was rehomogenized in ice-cold buffer, diluted, and centrifuged as before. The final pellet was resuspended in the assay buffer and held on ice for the receptor binding assay.
For the receptor binding assay, aliquots of the membrane preparation were incubated for 90 min at 4° C. in 50 mM phosphate buffer containing 0.5 nM [^3 H]RO-4864 and various concentrations of the unlabeled test compounds. The assay was terminated by rapid filtration through Whatman GF/B filters under vacuum. The filters were washed three times with 5-ml aliquots of ice-cold buffer, and the bound radioactivity trapped on the filters was counted by liquid scintillation spectrometry.
(§2) The inhibition constants (Ki) were calculated from the equation Ki=IC50/(I+L/Kd), where L is the radioligand concentration and Kd is the equilibrium dissociation constant for the radioligand. The IC50 was derived from the inhibition data by linear least squares regression of log (B/Bt-B) versus log I, where I is the test compound concentration, Bt is the total amount of radioligand specifically bound, and B is the amount of specific binding in the presence of a given concentration of the unlabeled test compound. The IC50 is the antilog of log I, when the expression log (B/Bt-B) equals zero.

In test [1] the test system is rat pancreatic tumor cell line (AR42J). As to the kind of experiment: Proliferation assay (growth curves), AR42J. In kind it is cell-based. The note with it: single application. On the procedure:
(§3) The rat pancreatic tumor cell line (AR42J) was obtained from the American Type Culture Collection. The human colon adenocarcinoma (HT-29) and mouse melanoma (B16 F10) were obtained from the in-house tumor bank. The HT-29 cell line is used to generate the CX-1 tumor in nude mice. All cell lines were propagated in Dulbecco's modified Eagle's medium (DMEM) supplemented with 10% fetal bovine serum (FBS) and incubated in a humidified atmosphere of 90% air/ 10% CO2 at 37° C. These cell lines were maintained at Biomeasure, Inc. and were free of mycoplasma as judged by the indirect (Hoechst) method and the direct (Agar) method.
(§4) Growth Curves--The AR42J and HT-29 cells were plated at 5×10^4 cells per well and the B16 F10 was plated at 1×10^4 cells per well in 24 well tissue cult ure dishes in 1ml of DMEM supplemented with 10% FBS. […] The tissue culture plates were incubated at 37° C. in a humidified atomsphere of 90% air/10% CO2 for up to 8 days. At various times, single cell suspensions were obtained by washing the wells with DMEM, adding 0.5 ml of 0.05% trypsin--0.53 mM EDTA, incubating at 37° C. for 5 min., triturating, and adding 0.5ml of DMEM supplemented with 10% FBS to inhibit the trypsin. The total content of each well was added to Isoton and counted using a Coulter Counter model ZF attached to a Channelizer model 256 to ensure that a uniform single cell population was obtained.

The next test deals with mouse melanoma (B16 F10). The experiment in a line: Proliferation assay (growth curves), B16 F10. The format is cell-based. The note with it: 100 nM, single application. How it is done:
as §3, §4

Test [2] concerns human colon adenocarcinoma (HT-29). The experiment in a line: Proliferation assay (growth curves), HT-29. In kind it is cell-based. How it is done: as §3, §4
In test [3] the target is neural BZD (central BZD receptor). As to the kind of experiment: Benzodiazepine receptor binding, neural (central) BZD. Also noted: species or system rat. On the procedure:
as §1, §2

Where [4] appears, read: read-out: BENZODIAZEPINE RECEPTOR BINDING, NEURAL BZD.

Read-outs that look alike come from different tables or passages of the source.

Consider `CN1C(=O)N(C(=O)c2ccc(F)cc2)N=C(c2ccccc2)c2ccccc21` [BIM-18154], for which, on peripheral BZD receptor, the Ki came to 0.68 nM. The “inhibition of the growth of AR42J cells” value in test [1] was “did not inhibit”. Besides, in the test with mouse melanoma (B16 F10), the “inhibiting the growth of B16 F10 cells” value is reported as “marginally active”. The inhibition of growth (as a rule, the relative decrease from the control value, in per cent) in test [2] (HT-29, day 4, single application) was around 35%. The “inhibiting the growth of HT-29 cells” value in test [2] (single application) was “active”.
For the molecule `CN1C(=O)N(C(=O)c2ccc(Cl)c(Cl)c2)N=C(c2ccccc2)c2ccccc21` [BIM-18156], the Ki at peripheral BZD receptor worked out at 1.68 nM.
Same read-out and setting: with `CN1C(=O)N(Cc2ccc(F)cc2)N=C(c2ccccc2)c2ccccc21` [BIM-18268] the figure was 12 nM; with `CN1C(=O)N(Cc2ccc(Cl)c(Cl)c2)N=C(c2ccccc2)c2ccccc21` [BIM-18269], 53 nM; with `CN1C(=O)N(C(=O)c2ccc(F)c(F)c2)N=C(c2ccccc2)c2ccccc21` [BIM-18272], 3.1 nM.
`O=C1CN=C(c2ccccc2Cl)c2cc([N+](=O)[O-])ccc2N1` [CLONAZEPAM, clonazepam, reference compound]: the Ki at peripheral BZD receptor turned out to be 10000 nM; in test [3] (setting [4]), 0.55 nM.
Take `CN1C(=O)CN=C(c2ccccc2)c2cc(Cl)ccc21` [DIAZEPAM, diazepam]: in test [3] (read-out: BENZ[…] BINDING, NEURAL BZD), the Ki was 8.4 nM.
As for `CN1C(=O)CN=C(c2ccc(Cl)cc2)c2cc(Cl)ccc21` [RO5-4864], the Ki in test [3] (setting [4]) was 7210 nM.
